In PMC12085399, “Quantitative in vitro-to-in vivo extrapolation of human adrenergic and trace amine-associated receptor 1 potencies of pre-workout supplement ingredients using physiologically based kinetic modelling-based reverse dosimetry” (Archives of Toxicology, 2025):

Experiments:
ADRβ2 = experiment: PBK modelling-based reverse dosimetry of in vitro EC50 to ED50, ADRβ2; settings: predicted human oral ED50 from in vitro EC50 (Pinckaers et al. [2024]) and modelled Cmax plasma venous
Excerpt: The in vitro effect concentrations (EC50), for activation of the α1A, α1B, α1D, α2A, α2B, β1 and β2 ADR activation and the activation of TAAR1, were obtained from our previous study (Pinckaers et al. [2024]).

Caco-2 cells = experiment: in vitro; settings: for fa (fraction absorbed) / ka (absorption rate constant): scaled from corrected Caco-2 Papp A-B, human; for metabolic breakdown by Caco-2 cells: Caco-2 transport studies, 10 µM
Procedure: (§1) Caco-2 cells (ATCC, Manassas, VA, USA; passage 30–44) were cultured in DMEM (Gibco, New York, USA) containing 4.5 g/L d-glucose, 4 mM L-glutamine and supplemented with 10% FBS (Gibco, Grand Island, NY, USA), 1% minimal essential medium non-essential amino acids (Gibco, Paisley, UK), 100 units/mL penicillin and 100 µg/mL streptomycin (Gibco, Grand Island, NY, USA). Cells were seeded at a density of 4.0 × 10^4 cells/cm^2 on polyester transwell insert membranes (12 mm insert, 0.4 µm pore size; Corning incorporated, Kennebunk, ME, USA). Cells were maintained in a humidified incubator with 5% CO2 at 37 °C for 21 or 22 days in 0.5 mL and 1.5 mL medium in the apical and basolateral compartments, respectively. The medium was refreshed every two or three days and always one day before the permeability assay.
(§2) On the day of the experiment, cells were washed twice with HBSS without phenol red (pH 7.4; Sigma-Aldrich, Steinheim, Germany) supplemented with 0.35 g/L sodium bicarbonate and 25 mM HEPES and they were equilibrated in this supplemented HBSS for 15 min in a humidified incubator with 5% CO2 at 37 °C. […] These stocks were diluted to a final concentration of 10 µM in pre-warmed supplemented HBSS (final DMSO level = 0.1%). After 15 min, the transepithelial electrical resistance (TEER) was measured with an Epithelial Voltohmmeter (World Precision Instruments, Sarasota, USA). Compound transport was studied in two directions: from the apical to the basolateral compartment (A-B) and from the basolateral to the apical compartment (B-A). For A-B experiments, 450 µL of the compound (10 µM) was added to the apical side and 1200 µL supplemented HBSS was added to the basolateral side. A sample of 50 µL was removed immediately from the apical compartment at time point zero. After 15 and 30 min, samples were taken from the basolateral compartment. Cells were kept in the incubator during the experiment. After 60 min, medium from both compartments was sampled, cells were washed twice with supplemented HBSS and were maintained in the incubator. After 15 min, the TEER was measured again to check for epithelial barrier damage due to compound exposure. After this, cells were lysed in RIPA buffer (Thermo Scientific, Rockford, IL, USA). For B-A experiments, 400 µL of supplemented HBSS was added to the apical side and 1250 µL of the compound (10 µM) was added to the basolateral side. A sample of 50 µL was removed immediately from the basolateral compartment at time point zero. After 15 and 30 min, samples were taken from the apical compartment. After 60 min, samples were taken similarly as in A-B experiments. The sampled medium and cell lysates were stored at −20 °C till the day of the liquid chromatography–mass spectrometry (LC–MS/MS) analysis. All experiments were run in duplicate. The compounds were quantified with LC–MS/MS as described in Sect. "LC–MS/MS analysis".
(§3) Before chemical analysis, cell lysates were two times diluted in ice-cold methanol and centrifuged at 15,000 rpm at 4 °C. The supernatant was then injected into the LC–MS/MS system. Sampled buffer from donor compartments was diluted 40 times in buffer and samples from the receiver compartment were analysed undiluted. Standards were prepared in the same assay buffer to quantify the amount of compound in medium samples. For quantification of compounds in cell lysates, standards were prepared in a mixture of 50% RIPA buffer and 50% methanol.
(§4) All data are presented as mean ± SD.
(§5) For the < Tsi > a value of 3.32 h was used (Grandoni et al. [2019]).

in vitro = settings: human; for Papp B→A at 60 min, 10 µM / efflux ratio at 60 min, 10 µM: Caco-2, pH 7.4; for recovery at 60 min, 10 µM: after 60 min, mean ± SD
Procedure: as §1, §2, §3, §4, §5

[1] = Generic human PBK model with oral dosing, simulated venous plasma concentration; settings: oral dose of 5.7 mg/kg bw, observed data of Rafehi et al. [2019]
Excerpt: The PBK model codes used in this study are presented in the Supplementary data. For the prediction of internal concentrations of the PEA analogues a generic PBK model for humans with oral dosing was used. The PBK model code was adopted from (Jones and Rowland-Yeo [2013]). In general, the body compartments described in the model are: adipose, bone, brain, gut, heart, kidney, liver, lung, muscle, skin, spleen, testes, venous, arterial, plasma and a rest compartment. The concentrations in these compartments were modelled as blood-flow limited, in which it is assumed that the total concentration in the tissue is in equilibrium with the concentration in the systemic circulation at a steady state. The concentration in the circulation is compound-specific and is based on the plasma partition coefficients. The blood flow rate, the tissue volume and the plasma partition coefficients determine the rate of reaching the steady-state (Jones and Rowland-Yeo [2013]). The model was converted to RStudio (version 2023.12.1 Build 402, “Ocean Storm Release”) solving the differential equations with the R rxode2 package (with tidyverse packages). Cliver free was defined as Cliver/Kp liver * Fup instead of Cliver* Fup. […]

[2] = human; ref Faraj et al. [1979]; cited from earlier work
[3] = Caco-2, pH 7.4, Papp A-B corrected, corrected for the difference between Papp A-B of metoprolol in this study and in literature
[4] = Caco-2, pH 7.4, Papp A-B, Caco-2, apical to basolateral, 10 µM, HBSS pH 7.4, mean ± SD, duplicate
[5] = Caco-2, pH 7.4, Recovery (A-B), Caco-2, A-B experiments
[6] = Caco-2, pH 7.4, Recovery (B-A), Caco-2, B-A experiments

With `CNC(C)C(O)c1ccc(O)cc1` (stereo not drawn) [Methylsynephrine] as the molecule, how does the “ADRβ2 ED50” value (ADRβ2) read?
Its value is “– (compounds with a dash (-) did not activate the receptors in vitro at concentrations ≤ 300 µM)”.

And the “fa (fraction absorbed)” value (Caco-2 cells)?
The value was 0.971.

What about the “ka (absorption rate constant)” value (Caco-2 cells) of the same molecule?
The value was 0.563 h⁻¹.

And the Papp B→A at 60 min, 10 µM (in vitro)?
Its Papp B→A at 60 min, 10 µM is 0.39 ± 0.202 ×10⁻⁶ cm/s.

And the efflux ratio at 60 min, 10 µM (in vitro)?
Its efflux ratio at 60 min, 10 µM is 1.1.

And the Papp A→B at 60 min, 10 µM (in vitro; [3])?
Its Papp A→B at 60 min, 10 µM is 1.3 ×10⁻⁶ cm/s.

What about the Papp A→B at 60 min, 10 µM (in vitro; [4]) of the same molecule?
Its Papp A→B at 60 min, 10 µM is 0.353 ± 0.215 ×10⁻⁶ cm/s.

And the recovery at 60 min, 10 µM (in vitro; [5])?
Its recovery at 60 min, 10 µM is 114 ± 8.39%.

What about the recovery at 60 min, 10 µM (in vitro; [6]) of the same molecule?
Its recovery at 60 min, 10 µM is 102 ± 11.7%.

For `NCCc1ccccc1` [Phenethylamine, phenethylamine], which “ADRβ2 ED50” value (ADRβ2) is on record?
Its value is “– (compounds with a dash (-) did not activate the receptors in vitro at concentrations ≤ 300 µM)”.

What about the “metabolic breakdown by Caco-2 cells” value (Caco-2 cells) of the same molecule?
Its value is “metabolized by Caco-2 cells”.

What about the “fa (fraction absorbed)” value (Caco-2 cells) of the same molecule?
The value was 1.00.

What about the “ka (absorption rate constant)” value (Caco-2 cells) of the same molecule?
The value was 1.64 h⁻¹.

What about the Papp B→A at 60 min, 10 µM (in vitro) of the same molecule?
The Papp B→A at 60 min, 10 µM was 1.95 ± 1.04 ×10⁻⁶ cm/s.

And the efflux ratio at 60 min, 10 µM (in vitro)?
The efflux ratio at 60 min, 10 µM was 0.677.

What about the Papp A→B at 60 min, 10 µM (in vitro; [3]) of the same molecule?
The Papp A→B at 60 min, 10 µM was 10.5 ×10⁻⁶ cm/s.

And the Papp A→B at 60 min, 10 µM (in vitro; [4])?
The Papp A→B at 60 min, 10 µM was 2.88 ± 0.22 ×10⁻⁶ cm/s.

What about the recovery at 60 min, 10 µM (in vitro; [5]) of the same molecule?
Its recovery at 60 min, 10 µM is 15.7 ± 1.51%.

And the recovery at 60 min, 10 µM (in vitro; [6])?
Its recovery at 60 min, 10 µM is 103 ± 3.36%.

With `NCCc1ccc(O)cc1` [Tyramine, tyramine] as the molecule, how does the “over-prediction of the Cmax plasma compared to the observed average” value [1] read?
Its value is 3.78 fold.

And the “metabolic clearance observed in humans” value [2]?
Its value is 792 L/h.

And the “ADRβ2 ED50” value (ADRβ2)?
Its value is “– (compounds with a dash (-) did not activate the receptors in vitro at concentrations ≤ 300 µM)”.

And the “metabolic breakdown by Caco-2 cells” value (Caco-2 cells)?
Its value is “not observed”.

And the “fa (fraction absorbed)” value (Caco-2 cells)?
The value was 1.00.

And the “ka (absorption rate constant)” value (Caco-2 cells)?
Its value is 1.50 h⁻¹.

And the Papp B→A at 60 min, 10 µM (in vitro)?
Its Papp B→A at 60 min, 10 µM is 1.13 ± 0.67 ×10⁻⁶ cm/s.

What about the Papp A→B at 60 min, 10 µM (in vitro; [3]) of the same molecule?
The Papp A→B at 60 min, 10 µM was 8.7 ×10⁻⁶ cm/s.

What about the Papp A→B at 60 min, 10 µM (in vitro; [4]) of the same molecule?
Its Papp A→B at 60 min, 10 µM is 2.38 ± 1.19 ×10⁻⁶ cm/s.

What about the recovery at 60 min, 10 µM (in vitro; [5]) of the same molecule?
The recovery at 60 min, 10 µM was 114 ± 11.2%.

What about the recovery at 60 min, 10 µM (in vitro; [6]) of the same molecule?
Its recovery at 60 min, 10 µM is 84 ± 6.25%.

With `CNCC(O)c1ccc(O)cc1` (stereo not drawn) [p-Synephrine, Synephrine] as the molecule, how does the “ADRβ2 ED50” value (ADRβ2) read?
The value was “– (compounds with a dash (-) did not activate the receptors in vitro at concentrations ≤ 300 µM)”.

And the “metabolic breakdown by Caco-2 cells” value (Caco-2 cells)?
Its value is “not observed”.

What about the “fa (fraction absorbed)” value (Caco-2 cells) of the same molecule?
Its value is 0.997.

What about the “ka (absorption rate constant)” value (Caco-2 cells) of the same molecule?
Its value is 0.951 h⁻¹.

What about the Papp B→A at 60 min, 10 µM (in vitro) of the same molecule?
The Papp B→A at 60 min, 10 µM was 0.22 ± 0.0453 ×10⁻⁶ cm/s.

What about the Papp A→B at 60 min, 10 µM (in vitro; [3]) of the same molecule?
The Papp A→B at 60 min, 10 µM was 3.47 ×10⁻⁶ cm/s.

What about the Papp A→B at 60 min, 10 µM (in vitro; [4]) of the same molecule?
Its Papp A→B at 60 min, 10 µM is 0.951 ± 0.497 ×10⁻⁶ cm/s.

What about the recovery at 60 min, 10 µM (in vitro; [5]) of the same molecule?
Its recovery at 60 min, 10 µM is 109 ± 1.48%.

And the recovery at 60 min, 10 µM (in vitro; [6])?
Its recovery at 60 min, 10 µM is 100 ± 4.89%.

Which “ADRβ2 ED50” value (ADRβ2) does the source give for `CC(CN)c1ccccc1` (stereo not drawn) [β-Methylphenethylamine, β-methylphenethylamine] here?
Its value is “– (compounds with a dash (-) did not activate the receptors in vitro at concentrations ≤ 300 µM)”.

And the “fa (fraction absorbed)” value (Caco-2 cells)?
Its value is 1.00.

And the “ka (absorption rate constant)” value (Caco-2 cells)?
The value was 3.79 h⁻¹.

And the Papp B→A at 60 min, 10 µM (in vitro)?
The Papp B→A at 60 min, 10 µM was 12.1 ± 2.02 ×10⁻⁶ cm/s.

And the efflux ratio at 60 min, 10 µM (in vitro)?
Its efflux ratio at 60 min, 10 µM is 0.766.

And the Papp A→B at 60 min, 10 µM (in vitro; [3])?
The Papp A→B at 60 min, 10 µM was 57.6 ×10⁻⁶ cm/s.

And the Papp A→B at 60 min, 10 µM (in vitro; [4])?
The Papp A→B at 60 min, 10 µM was 15.8 ± 1.47 ×10⁻⁶ cm/s.

What about the recovery at 60 min, 10 µM (in vitro; [5]) of the same molecule?
Its recovery at 60 min, 10 µM is 80.9 ± 3.27%.

What about the recovery at 60 min, 10 µM (in vitro; [6]) of the same molecule?
Its recovery at 60 min, 10 µM is 89.3 ± 4.46%.
